From PMC10460054, “Multiplex Quantitative Analysis of 9 Compounds of Scutellaria baicalensis Georgi in the Plasma of Respiratory Syncytial Virus-Infected Mice Based on HPLC-MS/MS and Pharmacodynamic Effect Correlation Analysis” (Molecules, 2023)

Key:
[1] = Stability of 9 compounds in mouse plasma under storage conditions; assay type: in vitro ADME; settings: n = 6; for Stability 3-Freeze-Thaw Cycles RE: 3 times repeated freeze-thaw at −80 °C; for Stability Short-Term RE: 12 h at 4 °C; for Stability Long-Term RE: −20 °C for 20 days
[2] = HPLC-MS/MS quantification of 9 compounds in plasma of RSV-infected mice after Scutellaria baicalensis Georgi administration; assay type: in vivo, BALB/c mice; parameters: drug-containing plasma content: unit not given here; settings: for time of highest plasma concentration, first peak / time of highest plasma concentration, second peak: RSV-infected mice after Scutellaria baicalensis Georgi administration, double peak phenomenon
Method: The study employed a Vanquish high-performance liquid chromatograph for chromatographic separation, with a HALO C18 column (2.1 × 100 mm, 2.7 μm) as the chromatographic column.
Mass spectrometry was performed using a quadrupole-electrostatic field orbitrap desktop mass spectrometer equipped with an electrospray ion source (ESI). The ESI parameters were set as follows: the pyrolysis voltage was 3.0 kV, the auxiliary gas flow rate was 10 mL/min, the ion transport tube temperature was 350 °C, the auxiliary gas temperature was 350 °C, and the sheath gas flow rate was 45 L/min. Quantitative analysis was performed using the selective ion detection (SIM) mode (Table S1).
Male BALB/c mice, aged 2 weeks and weighing 10–12 g, were chosen for this study. They were acclimatized for 2 days and then randomly assigned to one of five groups: blank (C), model (M), positive control ribavirin (Y1), positive control lianhua qingwen granules (Y2), and Scutellaria baicalensis Georgi administration (H1-H12). Each group consisted of six mice, and their weights were recorded. The mice were pre-administered for 2 days, and on the third day, RSV virus (TCID50 = 10^−6) was inoculated through intranasal infection at a volume of 35 μL per mouse. The blank group was inoculated with normal saline of the same volume. After the inoculation of the RSV virus, the blank and model groups were given distilled water by gavage, while the drug-administered groups were given an aqueous extract of Scutellaria baicalensis Georgi (10 µL/g) once a day for 3 days. The mice were observed daily for their mental status, hair color, diet, and body weight. […] It was then centrifuged at 3000 r/min for 10 min, and the upper layer of plasma was stored at −80℃. Lung tissues were weighed, the lung index was calculated, and the lung tissues were stored in the refrigerator at −80 °C for freezing.
The plasma sample (200 μL) was processed in a 5 mL tube. Subsequently, 10 μL of 5% formic acid and 20 μL of 2 mol/L hydrochloric acid were added, followed by vortexing for 1 min with 10 μL of internal standard solution (100 ng/mL tinidazole). The extraction was completed by adding 2000 μL of acetonitrile solvent and vortexing for 2 min. The mixture was then centrifuged at 12,000 r/min at 4 °C for 10 min, and the supernatant solution was collected in a new centrifuge tube. The supernatant solution was dried by nitrogen at room temperature before being redissolved in 50 μL of 70% acetonitrile solution containing 0.1% formic acid. After vortexing for 1 min, the solution was centrifuged at 12,000 r/min at 4 °C for 10 min, and the resulting supernatant was injected for analysis. The injection volume was 3 μL.
The drug-containing plasma at different time points was subjected to sample treatment. The HPLC-MS/MS analysis method was used to quantitatively detect the 9 compounds in the ion detection (SIM) mode. According to the relative peak area value = index peak area/internal standard peak area, the corresponding concentration value was calculated by substituting the standard curve of each component.

[3] = high QC (20,000 or 10,000 ng/mL)
[4] = male, BALB/c, mouse, in vivo, 0.083 h
[5] = male, BALB/c, mouse, in vivo, 0.167 h
[6] = male, BALB/c, mouse, in vivo, 0.25 h
[7] = male, BALB/c, mouse, in vivo, 0.5 h
[8] = male, BALB/c, mouse, in vivo, 1 h
[9] = male, BALB/c, mouse, in vivo, 2 h
[10] = male, BALB/c, mouse, in vivo, 4 h
[11] = male, BALB/c, mouse, in vivo, 6 h
[12] = male, BALB/c, mouse, in vivo, 8 h
[13] = male, BALB/c, mouse, in vivo, 10 h
[14] = male, BALB/c, mouse, in vivo, 12 h
[15] = male, BALB/c, mouse, in vivo, 24 h
[16] = RSV-infected mice, 0.083 h after last gavage of Scutellaria baicalensis Georgi extract, mean ± SD, n = 6
[17] = RSV-infected mice, 0.167 h after last gavage of Scutellaria baicalensis Georgi extract, mean ± SD, n = 6
[18] = RSV-infected mice, 0.25 h after last gavage of Scutellaria baicalensis Georgi extract, mean ± SD, n = 6
[19] = RSV-infected mice, 0.5 h after last gavage of Scutellaria baicalensis Georgi extract, mean ± SD, n = 6
[20] = RSV-infected mice, 1 h after last gavage of Scutellaria baicalensis Georgi extract, mean ± SD, n = 6
[21] = RSV-infected mice, 2 h after last gavage of Scutellaria baicalensis Georgi extract, mean ± SD, n = 6
[22] = RSV-infected mice, 4 h after last gavage of Scutellaria baicalensis Georgi extract, mean ± SD, n = 6
[23] = RSV-infected mice, 6 h after last gavage of Scutellaria baicalensis Georgi extract, mean ± SD, n = 6
[24] = RSV-infected mice, 8 h after last gavage of Scutellaria baicalensis Georgi extract, mean ± SD, n = 6
[25] = RSV-infected mice, 10 h after last gavage of Scutellaria baicalensis Georgi extract, mean ± SD, n = 6
[26] = RSV-infected mice, 12 h after last gavage of Scutellaria baicalensis Georgi extract, mean ± SD, n = 6
[27] = RSV-infected mice, 24 h after last gavage of Scutellaria baicalensis Georgi extract, mean ± SD, n = 6

| SMILES | time of highest plasma concentration, first peak [2] [h] | time of highest plasma concentration, second peak [2] [h] | drug-containing plasma content [2, 16] | drug-containing plasma content [2, 17] | drug-containing plasma content [2, 18] | drug-containing plasma content [2, 19] | drug-containing plasma content [2, 20] | drug-containing plasma content [2, 21] | drug-containing plasma content [2, 22] | drug-containing plasma content [2, 23] | drug-containing plasma content [2, 24] | Stability 3-Freeze-Thaw Cycles RE [1, 3] [%] | Stability 3-Freeze-Thaw Cycles RE ([1]; low QC (12.5 or 25.6 ng/mL)) [%] | Stability 3-Freeze-Thaw Cycles RE ([1]; medium QC (320 or 160 ng/mL)) [%] | Stability Short-Term RE [1, 3] [%] | Stability Short-Term RE ([1]; low QC (12.5 or 25.6 ng/mL)) [%] | Stability Short-Term RE ([1]; medium QC (320 or 160 ng/mL)) [%] | Stability Long-Term RE [1, 3] [%] | Stability Long-Term RE ([1]; low QC (12.5 or 25.6 ng/mL)) [%] | Stability Long-Term RE ([1]; medium QC (320 or 160 ng/mL)) [%] | also measured |
| --- | --- | --- | --- | --- | --- | --- | --- | --- | --- | --- | --- | --- | --- | --- | --- | --- | --- | --- | --- | --- | --- |
| O=C(O)[C@H]1O[C@@H](Oc2cc3oc(-c4ccccc4)cc(=O)c3c(O)c2O)[C@H](O)[C@@H](O)[C@@H]1O [Baicalin] | 0.167 | 6 | – | – | – | – | – | – | – | – | – | 7.69 | −7.38 | −2.37 | 5.73 | −9.16 | −5.85 | 5.87 | −8.15 | −5.21 | drug-containing plasma content [2, 4]: 2434.28± 151.56; drug-containing plasma content [2, 5]: 4607.45± 318.09; drug-containing plasma content [2, 6]: 2031.56± 103.57; drug-containing plasma content [2, 7]: 2696.64± 110.33; drug-containing plasma content [2, 8]: 2474.37± 225.92; drug-containing plasma content [2, 9]: 2620.76± 117.82; drug-containing plasma content [2, 10]: 1587.10± 169.68; drug-containing plasma content [2, 11]: 8607.45± 428.09; drug-containing plasma content [2, 12]: 1856.98± 113.03; drug-containing plasma content [2, 13]: 569.32± 20.22; drug-containing plasma content [2, 14]: 39.89± 7.45; drug-containing plasma content [2, 15]: 15.44± 5.62 |
| O=c1cc(-c2ccccc2)oc2cc(O)cc(O)c12 [Chrysin] | – | – | 0 | 0 | 0 | 10.37± 2.12 | 15.38± 4.94 | 21.43± 4.86 | 12.37± 2.12 | 60.64± 2.86 | 0 | −2.47 | −6.42 | −5.15 | −2.74 | −5.59 | −10.49 | −3.86 | −4.52 | −9.37 | drug-containing plasma content [2, 25]: 0; drug-containing plasma content [2, 26]: 0; drug-containing plasma content [2, 27]: 0 |
| O=c1cc(-c2ccccc2)oc2cc(O)c(O)c(O)c12 [Baicalein] | 0.167 | 6 | – | – | – | – | – | – | – | – | – | – | – | – | – | – | – | – | – | – | drug-containing plasma content [2, 4]: 235.76± 21.97; drug-containing plasma content [2, 5]: 573.93± 23.68; drug-containing plasma content [2, 6]: 437.59± 15.17; drug-containing plasma content [2, 7]: 243.84± 16.32; drug-containing plasma content [2, 8]: 208.98± 14.58; drug-containing plasma content [2, 9]: 25.73± 5.59; drug-containing plasma content [2, 10]: 43.00± 8.66; drug-containing plasma content [2, 11]: 792.15± 41.3; drug-containing plasma content [2, 12]: 184.80± 29.24; drug-containing plasma content [2, 13]: 120.93± 15.03; drug-containing plasma content [2, 14]: 9.28± 5.01; drug-containing plasma content [2, 15]: 1.42± 5.86 |

Now from value to compound, other results behind:

| time of highest plasma concentration, first peak [2] [h] | time of highest plasma concentration, second peak [2] [h] | drug-containing plasma content [2, 16] | drug-containing plasma content [2, 17] | drug-containing plasma content [2, 18] | drug-containing plasma content [2, 19] | drug-containing plasma content [2, 20] | drug-containing plasma content [2, 21] | drug-containing plasma content [2, 22] | drug-containing plasma content [2, 23] | drug-containing plasma content [2, 24] | SMILES | Stability 3-Freeze-Thaw Cycles RE [1, 3] [%] | Stability 3-Freeze-Thaw Cycles RE ([1]; low QC (12.5 or 25.6 ng/mL)) [%] | Stability 3-Freeze-Thaw Cycles RE ([1]; medium QC (320 or 160 ng/mL)) [%] | Stability Short-Term RE [1, 3] [%] | Stability Short-Term RE ([1]; low QC (12.5 or 25.6 ng/mL)) [%] | Stability Short-Term RE ([1]; medium QC (320 or 160 ng/mL)) [%] | Stability Long-Term RE [1, 3] [%] | Stability Long-Term RE ([1]; low QC (12.5 or 25.6 ng/mL)) [%] | Stability Long-Term RE ([1]; medium QC (320 or 160 ng/mL)) [%] | also measured |
| --- | --- | --- | --- | --- | --- | --- | --- | --- | --- | --- | --- | --- | --- | --- | --- | --- | --- | --- | --- | --- | --- |
| 0.167 | 6 | 553.37± 9.22 | 1829.58± 102.08 | 928.49± 33.77 | 776.20± 41.04 | 1078.05± 63.01 | 1333.51± 38.28 | 1372.78± 53.34 | 3829.58± 182.08 | 1825.89± 177.13 | COc1c(O[C@@H]2O[C@H](C(=O)O)[C@@H](O)[C@H](O)[C@H]2O)cc(O)c2c(=O)cc(-c3ccccc3)oc12 [Wogonoside] | 1.79 | −8.61 | 0.60 | 3.40 | −3.08 | −1.39 | 3.40 | −2.30 | −2.01 | drug-containing plasma content [2, 25]: 318.50± 23.92; drug-containing plasma content [2, 26]: 188.85± 19.38; drug-containing plasma content [2, 27]: 0 |
| 0.167 | 6 | 462.93± 10.74 | 603.78± 13.98 | 143.83± 6.73 | 315.26± 12.78 | 138.74± 3.62 | 315.26± 12.78 | 412.32± 18.42 | 1008.71± 54.19 | 286.84± 8.27 | COc1c(OC2OC(C(=O)O)C(O)C(O)C2O)cc2oc(-c3ccccc3)cc(=O)c2c1O [Oroxylin A 7-O-beta-D-glucuronide] | −0.56 | 6.23 | 3.08 | −0.23 | 7.34 | 1.89 | 0.55 | 7.73 | 2.21 | drug-containing plasma content [2, 25]: 160.51± 5.17; drug-containing plasma content [2, 26]: 29.40± 0.71; drug-containing plasma content [2, 27]: 0 |
